In patent US20240148745A1, “COMPOUNDS FOR USE IN PROGRESSIVE MULTIPLE SCLEROSIS” (FONDAZIONE CENTRO SAN RAFFAELE, priority 2021, published 2024):

System: human embryonic and fetal neural precursors (hufNPCs)
Assay: hufNPC differentiation towards TUJ1+ neurons
Type: cell-based
Settings: 1 μM, 7 days
Experimental: First, fresh human fetal brain tissues were mechanically dissociated, followed by enzymatic dissociation with Trypsin (LONZA (BE17-161E) 1:5) in growth medium for 5-10 min at 37° C., 5% O2 e 5% CO2, then washed with 10% Australian FBS in fresh medium and centrifuged 15 min at 200 g. Cells were plated in T25 flask in Neural stem cell growth medium (NeuroCult-XF Basal Medium (cat. #05760)+ NeuroCult-XF Proliferation supplement (cat. #05763) (for Human Neural Stem Cells) […] TECHNOLOGIES+human recombinant carrier-free EGF (cat. #1325 9510 00) and bFGF (cat. #1370 9505 00) (Provitro) at final concentration of 20 ng/ml) at 37° C., 5% O2 e 5% CO2. After 15-25 days, enzymatic (Accumax®, StarFish cat. #GMP-102470) dissociation of neurospheres or subconfluent adherent cells was performed and cells were re-plated at density (25000 cells/cm2) in NGM. […] Pro-differentiating properties of 160 compounds were evaluated by co-incubating freshly seeded in 96 well plate hufNPCs with 1 μM compounds for 7 days (each compound was tested in triplicate). […] After one week, cells were fixed and analyzed via immunocytochemistry. […] 15 images per well were acquired and analyzed by CellProfiler. Number of TUJ1+/DAPI cells was counted and compared to DMSO.
160 selected non-toxic compounds pro-differentiating properties were evaluated on human embryonic and fetal neural precursors (hufNPCs). […]

## CC1(C)CCC(C)(C)c2cc(NC(=O)c3ccc(C(=O)O)cc3)ccc21 [Tamibarotene]
  neuronal differentiation (TUJ1+/DAPI cells vs DMSO): significantly promoted neuronal differentiation compared to DMSO and heparin
